Starred links: 1 amine or outer side, 2 acyl side, 3 side chain; linkers in the order of their positions; H or OH if unused. Non-standard residues stand in square brackets, D forms with d. Residues, ends and D or L forms follow the SMILES beside them. Groups on a side chain read outwards from the residue. *: point of attachment. C20 diacid = O=C(O)CCCCCCCCCCCCCCCCCCC(=O)*; C18 diacid = O=C(O)CCCCCCCCCCCCCCCCC(=O)*; γGlu = O=C(O)[C@H](CCC(=O)[*:2])N[*:1]; αMeF = C[C@](N)(Cc1ccccc1)C(=O)O; PEG2 = NCCOCCOCCC(=O)O; AEEA = NCCOCCOCC(=O)O; Aib = CC(C)(N)C(=O)O
Each compound was assayed against T1, human GLP-1 receptor (hGLP-1R) (Homo sapiens, UniProt P43220) (assay: cAMP production (HTRF) in CHO cells expressing human GLP-1 receptor). Details: Table 8; % GLP-1R activity relative to GLP-1 / % GlucR activity relative to glucagon.
T1 construct: expressed in transfected cells; host or cells: CHO
T1 sequence (P43220 24-463): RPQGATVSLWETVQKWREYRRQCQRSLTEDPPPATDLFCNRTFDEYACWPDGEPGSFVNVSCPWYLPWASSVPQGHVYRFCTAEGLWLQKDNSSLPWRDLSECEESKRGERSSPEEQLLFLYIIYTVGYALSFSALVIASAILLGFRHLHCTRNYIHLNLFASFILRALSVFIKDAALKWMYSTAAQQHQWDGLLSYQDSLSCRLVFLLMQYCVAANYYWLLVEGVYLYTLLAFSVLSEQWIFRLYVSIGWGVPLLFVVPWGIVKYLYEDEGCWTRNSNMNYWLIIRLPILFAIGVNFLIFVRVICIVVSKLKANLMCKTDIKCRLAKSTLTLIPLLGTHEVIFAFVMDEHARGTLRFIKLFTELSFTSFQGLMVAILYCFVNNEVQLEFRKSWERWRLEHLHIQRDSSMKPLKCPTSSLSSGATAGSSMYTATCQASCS
Assay type: cell-based
Protocol: Cells were re-suspended in assay buffer at a batch-dependent optimized concentration (typically hGLP-1R cells at 1×10^5 cells/mL, hGCGR cells at 2×10^5 cells/mL).
Cells were added to the assay plate using a multidrop dispenser and incubated at room temperature for 30 minutes before measuring the cAMP level using a cAMP dynamic 2 homogeneous time resolved Fluorescence (HTRF) kit (Cisbio Bioassays #62AM4PEJ) following the two-step protocol as per manufacturer's recommendations. In brief, anti-cAMP cryptate (donor fluorophore) and cAMP-d2 (acceptor fluorophore) were made up separately by diluting each 1 in 20 in conjugate and lysis buffer provided in the kit. Anti-cAMP cryptate was added to all wells of the assay plate, followed by cAMP-d2 added to all wells except non-specific binding (NSB) wells (to which conjugate and lysis buffer was added).
Data was transformed to % Delta F as described in the manufacturer's guidelines and analyzed by 4-parameter logistic fit to determine EC50 values.

Compound	% Relative Potency Ratio
CC[C@H](C)[C@H](NC(=O)[C@H](Cc1c[nH]c2ccccc12)NC(=O)[C@H](CCCCNC(=O)CC[C@H](NC(=O)CCCCCCCCCCCCCCCCCCC(=O)O)C(=O)O)NC(=O)[C@@H](NC(=O)[C@H](Cc1ccccc1)NC(=O)[C@H](CC(=O)O)NC(=O)[C@H](CCC(N)=O)NC(=O)[C@H](C)NC(=O)[C@H](C)NC(=O)[C@H](CCC(N)=O)NC(=O)[C@H](CO)NC(=O)[C@H](CC(=O)O)NC(=O)[C@H](CC(C)C)NC(=O)[C@](C)(Cc1ccccc1)NC(=O)[C@H](CCCCN)NC(=O)[C@H](CO)NC(=O)[C@@H](NC(=O)[C@H](CC(=O)O)NC(=O)[C@H](CO)NC(=O)[C@@H](NC(=O)[C@H](Cc1ccccc1)NC(=O)[C@@H](NC(=O)CNC(=O)[C@H](Cc1c[nH]cn1)NC(=O)C(C)(C)NC(=O)[C@@H](N)Cc1c[nH]cn1)[C@@H](C)O)[C@@H](C)O)C(C)C)C(C)C)C(=O)N[C@@H](C)C(=O)N[C@@H](CC(N)=O)C(=O)N[C@H](C(N)=O)[C@@H](C)O [Peptide 347]	0.2
CC[C@H](C)[C@H](NC(=O)[C@H](Cc1c[nH]c2ccccc12)NC(=O)[C@H](CCCCNC(=O)COCCOCCNC(=O)COCCOCCNC(=O)CC[C@H](NC(=O)CC[C@H](NC(=O)CCCCCCCCCCCCCCCCC(=O)O)C(=O)O)C(=O)O)NC(=O)[C@@H](NC(=O)[C@H](Cc1ccccc1)NC(=O)[C@H](CC(=O)O)NC(=O)[C@H](CCC(N)=O)NC(=O)[C@H](C)NC(=O)[C@H](C)NC(=O)[C@H](CCCNC(=N)N)NC(=O)[C@H](CO)NC(=O)[C@H](CC(=O)O)NC(=O)[C@H](CC(C)C)NC(=O)[C@](C)(Cc1ccccc1)NC(=O)[C@H](CCCCN)NC(=O)[C@H](CO)NC(=O)[C@@H](NC(=O)[C@H](CC(=O)O)NC(=O)[C@H](CO)NC(=O)[C@@H](NC(=O)[C@](C)(Cc1ccccc1)NC(=O)[C@H](CO)NC(=O)CNC(=O)[C@H](Cc1c[nH]cn1)NC(=O)C(C)(C)NC(=O)[C@@H](N)Cc1c[nH]cn1)[C@@H](C)O)C(C)C)C(C)C)C(=O)N[C@@H](C)C(=O)N[C@@H](CC(N)=O)C(=O)N[C@H](C(=O)NCC(N)=O)[C@@H](C)O [Peptide 363] (H-H[Aib]HGS[αMeF]TSDVSK[αMeF]LDSRAAQDFVK([AEEA-AEEA-γGlu-γGlu-C18 diacid])WIANTG-NH2; N-terminus assumed)	5.1
CC[C@H](C)[C@H](NC(=O)[C@H](Cc1c[nH]c2ccccc12)NC(=O)[C@H](CCCCNC(=O)CCOCCOCCNC(=O)CCOCCOCCNC(=O)CC[C@H](NC(=O)CC[C@H](NC(=O)CCCCCCCCCCCCCCCCC(=O)O)C(=O)O)C(=O)O)NC(=O)[C@@H](NC(=O)[C@H](Cc1ccccc1)NC(=O)[C@H](CC(=O)O)NC(=O)[C@H](CCC(N)=O)NC(=O)[C@H](C)NC(=O)[C@H](C)NC(=O)[C@H](CCC(N)=O)NC(=O)[C@H](CO)NC(=O)[C@H](CC(=O)O)NC(=O)[C@H](CC(C)C)NC(=O)[C@](C)(Cc1ccccc1)NC(=O)[C@H](CCCCN)NC(=O)[C@H](CO)NC(=O)[C@@H](NC(=O)[C@H](CC(=O)O)NC(=O)[C@H](CO)NC(=O)[C@@H](NC(=O)[C@](C)(Cc1ccccc1)NC(=O)[C@H](CO)NC(=O)CNC(=O)[C@H](Cc1c[nH]cn1)NC(=O)C(C)(C)NC(=O)[C@@H](N)Cc1c[nH]cn1)[C@@H](C)O)C(C)C)C(C)C)C(=O)N[C@@H](C)C(=O)N[C@@H](CC(N)=O)C(=O)N[C@H](C(N)=O)[C@@H](C)O [Peptide 352] (H-H[Aib]HGS[αMeF]TSDVSK[αMeF]LDSQAAQDFVK([PEG2-PEG2-γGlu-γGlu-C18 diacid])WIANT-NH2)	1.4
CC[C@H](C)[C@H](NC(=O)C(C)(C)NC(=O)[C@H](CCCCNC(=O)COCCOCCNC(=O)COCCOCCNC(=O)CC[C@H](NC(=O)CC[C@H](NC(=O)CCCCCCCCCCCCCCCCC(=O)O)C(=O)O)C(=O)O)NC(=O)[C@@H](NC(=O)[C@](C)(Cc1ccccc1)NC(=O)[C@H](CC(=O)O)NC(=O)[C@H](CCC(N)=O)NC(=O)[C@H](C)NC(=O)[C@H](C)NC(=O)[C@H](CCCNC(=N)N)NC(=O)[C@H](CO)NC(=O)[C@H](CC(=O)O)NC(=O)[C@H](CC(C)C)NC(=O)[C@](C)(Cc1ccccc1)NC(=O)[C@H](CCCCN)NC(=O)[C@H](CO)NC(=O)[C@@H](NC(=O)[C@H](CC(=O)O)NC(=O)[C@H](CO)NC(=O)[C@@H](NC(=O)[C@](C)(Cc1ccccc1)NC(=O)[C@H](CO)NC(=O)CNC(=O)[C@H](Cc1c[nH]cn1)NC(=O)C(C)(C)NC(=O)[C@@H](N)Cc1c[nH]cn1)[C@@H](C)O)C(C)C)C(C)C)C(=O)N[C@@H](C)C(=O)N[C@@H](CC(N)=O)C(=O)N[C@H](C(=O)NCC(=O)NCC(N)=O)[C@@H](C)O [Peptide 373] (H-H[Aib]HGS[αMeF]TSDVSK[αMeF]LDSRAAQD[αMeF]VK([AEEA-AEEA-γGlu-γGlu-C18 diacid])[Aib]IANTGG-NH2; N-terminus assumed)	7.2
CC[C@H](C)[C@H](NC(=O)[C@H](Cc1c[nH]c2ccccc12)NC(=O)[C@H](CCCCNC(=O)COCCOCCNC(=O)COCCOCCNC(=O)CC[C@H](NC(=O)CC[C@H](NC(=O)CCCCCCCCCCCCCCCCC(=O)O)C(=O)O)C(=O)O)NC(=O)[C@@H](NC(=O)[C@](C)(Cc1ccccc1)NC(=O)[C@H](CC(=O)O)NC(=O)[C@H](CCC(N)=O)NC(=O)[C@H](C)NC(=O)[C@H](C)NC(=O)[C@H](CCCNC(=N)N)NC(=O)[C@H](CO)NC(=O)[C@H](CC(=O)O)NC(=O)[C@H](CC(C)C)NC(=O)[C@](C)(Cc1ccccc1)NC(=O)[C@H](CCCCN)NC(=O)[C@H](CO)NC(=O)[C@@H](NC(=O)[C@H](CC(=O)O)NC(=O)[C@H](CO)NC(=O)[C@@H](NC(=O)[C@](C)(Cc1ccccc1)NC(=O)[C@H](CO)NC(=O)CNC(=O)[C@H](Cc1c[nH]cn1)NC(=O)C(C)(C)NC(=O)[C@@H](N)Cc1c[nH]cn1)[C@@H](C)O)C(C)C)C(C)C)C(=O)N[C@@H](C)C(=O)N[C@@H](CC(N)=O)C(=O)N[C@H](C(N)=O)[C@@H](C)O [Peptide 371] (H-H[Aib]HGS[αMeF]TSDVSK[αMeF]LDSRAAQD[αMeF]VK([AEEA-AEEA-γGlu-γGlu-C18 diacid])WIANT-NH2; N-terminus assumed)	0.9

More lines, now with the values ahead:

% Relative Potency Ratio	Compound
2.0	CC[C@H](C)[C@H](NC(=O)[C@H](CO)NC(=O)[C@H](CCCCNC(=O)COCCOCCNC(=O)COCCOCCNC(=O)CC[C@H](NC(=O)CC[C@H](NC(=O)CCCCCCCCCCCCCCCCC(=O)O)C(=O)O)C(=O)O)NC(=O)[C@@H](NC(=O)[C@](C)(Cc1ccccc1)NC(=O)[C@H](CC(=O)O)NC(=O)[C@H](CCC(N)=O)NC(=O)[C@H](C)NC(=O)[C@H](C)NC(=O)[C@H](CCCNC(=N)N)NC(=O)[C@H](CO)NC(=O)[C@H](CC(=O)O)NC(=O)[C@H](CC(C)C)NC(=O)[C@](C)(Cc1ccccc1)NC(=O)[C@H](CCCCN)NC(=O)[C@H](CO)NC(=O)[C@@H](NC(=O)[C@H](CC(=O)O)NC(=O)[C@H](CO)NC(=O)[C@@H](NC(=O)[C@](C)(Cc1ccccc1)NC(=O)[C@H](CO)NC(=O)CNC(=O)[C@H](Cc1c[nH]cn1)NC(=O)C(C)(C)NC(=O)[C@@H](N)Cc1c[nH]cn1)[C@@H](C)O)C(C)C)C(C)C)C(=O)N[C@@H](C)C(=O)N[C@@H](CC(N)=O)C(=O)N[C@H](C(N)=O)[C@@H](C)O [Peptide 378] (H-H[Aib]HGS[αMeF]TSDVSK[αMeF]LDSRAAQD[αMeF]VK([AEEA-AEEA-γGlu-γGlu-C18 diacid])SIANT-NH2; N-terminus assumed)
3.8	CC[C@H](C)[C@H](NC(=O)C(C)(C)NC(=O)[C@H](CCCCNC(=O)COCCOCCNC(=O)COCCOCCNC(=O)CC[C@H](NC(=O)CCCCCCCCCCCCCCCCCCC(=O)O)C(=O)O)NC(=O)[C@@H](NC(=O)[C@H](Cc1ccccc1)NC(=O)[C@H](CC(=O)O)NC(=O)[C@H](CCC(N)=O)NC(=O)[C@H](C)NC(=O)[C@H](C)NC(=O)[C@H](CCCNC(=N)N)NC(=O)[C@H](CO)NC(=O)[C@H](CC(=O)O)NC(=O)[C@H](CC(C)C)NC(=O)[C@](C)(Cc1ccccc1)NC(=O)[C@H](CCCCN)NC(=O)[C@H](CO)NC(=O)[C@@H](NC(=O)[C@H](CC(=O)O)NC(=O)[C@H](CO)NC(=O)[C@@H](NC(=O)[C@](C)(Cc1ccccc1)NC(=O)[C@H](CO)NC(=O)CNC(=O)[C@H](Cc1c[nH]cn1)NC(=O)C(C)(C)NC(=O)[C@@H](N)Cc1c[nH]cn1)[C@@H](C)O)C(C)C)C(C)C)C(=O)N[C@@H](C)C(=O)N[C@@H](CC(N)=O)C(=O)N[C@H](C(N)=O)[C@@H](C)O [Peptide 369] (H-H[Aib]HGS[αMeF]TSDVSK[αMeF]LDSRAAQDFVK([AEEA-AEEA-γGlu-C20 diacid])[Aib]IANT-NH2)

Same assay, conditions: Table 9; % GLP-1R activity relative to GLP-1 / % GlucR activity relative to glucagon

% Relative Potency Ratio	Compound
9.3	HSQGS(αMePhe)TSDK((PEG)2-(PEG)2-γE-γE-Stearoyl)10SK(Dip)LDS(ß-dimethylArg)AAQD(αMePhe)VE(Aib)LANT-amide [Peptide 393]

Same assay, conditions: Table 10; % GLP-1R activity relative to GLP-1 / % GlucR activity relative to glucagon

% Relative Potency Ratio	Compound
16.7	HSQGS(αMePhe)TSDVSKK((PEG)2-(PEG)2-γE-VE-Palmitoyl)13LDS(B-dimethylArg)AAQD(aMePhe)VE(Aib)LANT-amide [Peptide 400]

From patent US12630600B2 (MEDIMMUNE LIMITED, priority 2022, dated 2026)
